From the supplement of paper PMC10307832

Experiments:
Test in all cases: relative viability (nuclei count vs DMSO), 5 days (fraction); higher = more cells survive
[1] = compound: CCN(CC)CCCCNc1ncc2cc(-c3cc(OC)cc(OC)c3)c(NC(=O)NC(C)(C)C)nc2n1
Summary of the method: (§1)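 Lung cancer cell lines were seeded into 1536-well plates, kept overnight at 37 °C and pinned with five library-drug doses (not always all listed) spaced by √10. After 5 days, nuclei were Hoechst-stained, imaged at 4× and counted with MetaXpress. Viability is treated-well nuclei over vehicle-well nuclei, taken as a median across plates. Plates needed control CV below 25% and at least one doubling.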

[2] = compound: COCC1(CO)C(=O)C2CCN1CC2 [PRIMA-1MET]
Summary of the method: as §1

[3] = compound: COc1nc(C)cnc1NS(=O)(=O)c1cccnc1-c1ccc(-c2nnco2)cc1 [Zibotentan]
Summary of the method: as §1

[4] = compound: C1COCCN1C2=CC(=O)C3=C(O2)C(=CC=C3)C4=CC=CC5=C4SC6=CC=CC=C56
Summary of the method: as §1

[5] = compound: O=c1cc(-c2cccc3c2Sc2ccccc2S3)oc(N2CCOCC2)c1
Summary of the method: as §1

Cell Line	relative viability ([1]; 0.01 µM)	relative viability ([1]; 0.03162 µM)	relative viability ([1]; 0.1 µM)	relative viability ([1]; 0.3162 µM)	relative viability ([1]; 1 µM)	relative viability ([2]; 0.2 µM)	relative viability ([2]; 0.6325 µM)	relative viability ([2]; 2 µM)	relative viability ([2]; 6.325 µM)	relative viability ([2]; 20 µM)	relative viability ([3]; 0.08 µM)	relative viability ([3]; 0.8 µM)	relative viability ([3]; 2.53 µM)	relative viability ([4]; 0.01 µM)	relative viability ([4]; 0.03162 µM)	relative viability ([4]; 0.1 µM)	relative viability ([4]; 0.3162 µM)	relative viability ([4]; 1 µM)	relative viability ([5]; 0.08 µM)	relative viability ([5]; 0.253 µM)	relative viability ([5]; 0.8 µM)	relative viability ([5]; 2.53 µM)	relative viability ([5]; 8 µM)	relative viability ([3]; 0.253 µM)
NCI-H1650	0.981	0.983	1.08	0.981	0.706	1.1	0.858	0.793	0.912	0.489	0.937	0.994	0.968	0.788	0.893	0.998	0.957	0.788	0.851	1.07	0.844	0.888	0.868	–
NCI-H1651	1.04	0.988	1.05	1.06	0.979	1.08	0.901	0.907	1.04	0.946	1.03	0.937	1.03	0.983	0.976	0.975	0.998	0.944	0.974	1.13	0.983	0.941	1.07	0.912
NCI-H1666	0.942	0.993	1	1.17	0.973	0.993	0.868	0.962	0.938	0.942	1.02	1.03	1.06	0.996	0.959	1.01	1.02	0.953	0.94	1.09	1.02	0.911	1	0.879
NCI-H1703	0.832	0.854	1.19	1.04	0.723	1.19	0.852	0.815	0.797	0.0528	0.972	1.25	0.505	1.19	0.926	0.964	0.958	0.861	0.718	1.01	1.03	0.925	0.843	0.94
NCI-H1734	0.949	1.1	1.09	1.03	0.85	1.03	0.75	0.734	0.945	0.0584	1.04	1.02	1	0.977	1.01	0.883	0.997	0.964	0.98	1.13	1.1	–	1.13	0.884
NCI-H1755	1.04	1.05	1.08	1.1	1.01	1.04	0.928	0.85	1.07	0.999	0.972	0.926	0.977	1.03	1.01	0.986	0.994	0.985	0.96	1.03	1.05	1.06	1.05	0.987
NCI-H1792	0.979	0.976	1.04	1.25	0.521	0.923	0.804	0.677	0.924	0.778	0.998	0.879	0.943	0.939	0.99	0.908	0.91	0.868	0.904	1.06	0.783	0.864	0.863	0.763
NCI-H1793	0.903	0.933	1.03	0.944	0.683	0.936	0.815	–	1.08	0.923	0.938	0.801	1.03	0.888	0.786	0.918	0.896	0.806	0.819	1.3	0.857	0.771	0.805	0.862
NCI-H1915	1.08	1.04	1.02	1.12	1.01	0.954	0.859	0.734	1	0.957	1.06	0.973	1.01	1.04	1.08	1.06	0.995	1.05	0.988	1.02	1.13	0.993	1.04	0.986
NCI-H1944	0.945	0.875	1.06	0.985	0.894	1.06	0.782	0.695	0.927	0.924	1.07	0.874	1.01	1	1.01	1.02	0.997	0.949	0.938	1.09	0.905	0.752	1.09	0.94
NCI-H1975	0.993	0.87	1.01	1.2	0.882	1.05	0.937	0.847	1.04	0.753	0.966	0.892	1.01	0.941	0.985	0.866	0.97	1.04	0.907	1.12	0.836	0.936	0.966	0.882
NCI-H1993	0.976	0.924	1.05	1.45	0.901	1	0.767	0.824	0.92	0.955	0.966	0.913	1.04	0.882	0.931	1.1	0.995	0.84	0.84	1.05	0.846	0.824	0.826	0.871
NCI-H2009	1.05	1.06	1.04	1.07	0.979	0.944	0.976	1.03	1.04	0.0681	1	1.07	1.06	1.02	0.995	1.01	0.982	0.927	0.987	1.03	0.962	0.93	0.869	0.968
NCI-H2023	0.914	1.09	1.16	1.05	0.854	1.3	0.888	0.955	0.97	0.826	1.06	0.899	1	1.05	1.1	1.04	0.973	0.908	0.923	1.12	0.972	0.865	0.888	0.794
